How the values were obtained:
[1] = target: mitochondrial RNA-polymerase (POLRMT) (Mus musculus, UniProt Q8BKF1); experiment: Homogeneous TR-FRET assay for mitochondrial transcription activity; assay type: biochemical; settings: homogeneous TR-FRET assay according to Example 4; activity class
Summary of the method: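 Mouse POLRMT, TFAM and TFB2M with linearized pUC-LSP template in 10 mM Tris-HCl pH 7.5, 10 mM MgCl2, 40 mM NaCl; compounds at 10 μM or serial dilution, 10 min RT preincubation. Started with 500 μM each […], 2 h RT; 407 bp RNA product detected by hybridized Eu-cryptate/ATTO647N probe TR-FRET (ex 340, em 665 nm).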

[2] = test system: NCI-H1299 (lung); experiment: CellTiter GLO viability assay, NCI-H1299; assay type: cell-based; settings: Homo sapiens, 144 h, read-out: IC50 (μM) incubation time 144 h
Description: (§1) The CellTiter-Glo Luminescent Cell Viability Assay (Promega) is a homogeneous method of determining the number of viable cells in culture. It is based on quantification of ATP, indicating the presence of metabolically active cells.
(§2) Cells were seeded on day 1 at cell numbers that assure assay linearity and optimal signal intensity. After incubation for 3 h in humidified chambers at 37° C./5% CO2 compounds/DMSO were added at different concentrations. […] Cells treated with the compound vehicle DMSO were used as positive controls and cells treated with 10 μM Staurosporine served as negative controls. […] Thereon, mixture and assay plates were equilibrated at room temperature for 20 min. Equal volumes of the reagent-medium-mixture was added to the volume of culture medium present in each well.
(§3) The plates were mixed at ˜200 rpm for 2 minutes on an orbital shaker. The microplates were then incubated at room temperature for 10 minutes for stabilization of the luminescent signal. Following incubation the luminescence is recorded on a Victor microplate reader (Perkin Elmer) using 200 ms integration time. The data were then analyzed with Excel using the XLFIT Plugin (dose response Fit 205) for IC50-determination. As quality control the Z′-factor was calculated from 16 positive and negative control values. Only assay results showing a Z′-factor≥0.5 were used for further analysis.

[3] = test system: SW948 (colon); experiment: CellTiter GLO viability assay, SW948; assay type: cell-based; settings: Homo sapiens, 144 h, read-out: IC50 (μM) incubation time 144 h
Description: as §1, §2, §3

[4] = test system: human DLD-1 colon carcinoma xenograft; experiment: Therapeutic effect on human DLD-1 colon carcinoma xenograft in nude mice
Description: DLD-1 colon carcinoma cells (5×10^6 cells in 100 μL of PBS/Matrigel), isolated during exponential growth phase from in vitro cell culture, were transplanted s.c. into each female BALB/c nude mouse at day 0. Mice were kept under strictly controlled and standardized barrier conditions in IVC.
Sorafenib) (Nexavar®, which is an approved multi-kinase inhibitor/cytostatic from Bayer A G, was used as a positive control. Body weight and tumor volume (TV) were monitored two to three times per week.
Mice of groups 3, 4 and 5 were treated again at the end of the study period and blood samples were taken to generate plasma 1 h prior and 1 h post treatment. In addition, tumor and tissue samples were isolated, divided into two parts and snap frozen in liquid nitrogen. Mice of groups 1-5 were sacrificed at day 39. Gross autopsy was performed from all mice.

Sequence of mitochondrial RNA-polymerase (POLRMT) (Q8BKF1 42-1207): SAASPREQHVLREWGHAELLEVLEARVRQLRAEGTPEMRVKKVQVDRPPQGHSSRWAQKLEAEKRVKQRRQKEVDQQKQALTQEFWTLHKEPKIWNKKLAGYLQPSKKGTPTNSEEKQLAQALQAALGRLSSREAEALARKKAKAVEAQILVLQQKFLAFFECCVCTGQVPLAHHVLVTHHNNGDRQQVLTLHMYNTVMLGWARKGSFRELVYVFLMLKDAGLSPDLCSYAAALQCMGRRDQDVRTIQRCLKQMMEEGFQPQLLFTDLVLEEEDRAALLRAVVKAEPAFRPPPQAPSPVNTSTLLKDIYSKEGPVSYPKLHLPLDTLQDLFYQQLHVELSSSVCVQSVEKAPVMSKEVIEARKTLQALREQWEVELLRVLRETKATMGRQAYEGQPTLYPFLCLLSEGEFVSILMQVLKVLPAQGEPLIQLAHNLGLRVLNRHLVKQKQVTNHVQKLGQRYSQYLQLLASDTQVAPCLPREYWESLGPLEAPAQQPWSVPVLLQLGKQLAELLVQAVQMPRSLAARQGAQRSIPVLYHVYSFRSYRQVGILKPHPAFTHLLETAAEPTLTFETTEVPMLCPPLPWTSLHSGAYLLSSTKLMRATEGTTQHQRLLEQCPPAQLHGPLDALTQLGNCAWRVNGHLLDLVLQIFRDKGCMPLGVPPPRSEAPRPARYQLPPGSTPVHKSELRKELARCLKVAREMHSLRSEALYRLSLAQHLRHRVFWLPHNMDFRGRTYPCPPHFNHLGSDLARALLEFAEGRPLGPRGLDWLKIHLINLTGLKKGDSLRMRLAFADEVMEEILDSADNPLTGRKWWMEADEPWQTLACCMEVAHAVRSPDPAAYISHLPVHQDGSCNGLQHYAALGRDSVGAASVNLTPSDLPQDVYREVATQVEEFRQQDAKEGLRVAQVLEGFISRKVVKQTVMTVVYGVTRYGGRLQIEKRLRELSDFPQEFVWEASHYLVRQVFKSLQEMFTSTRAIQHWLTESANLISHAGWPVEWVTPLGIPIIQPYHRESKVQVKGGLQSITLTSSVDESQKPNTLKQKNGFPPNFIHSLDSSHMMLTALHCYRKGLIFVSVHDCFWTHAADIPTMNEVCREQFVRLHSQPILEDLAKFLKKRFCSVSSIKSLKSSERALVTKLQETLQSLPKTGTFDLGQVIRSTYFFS

Structure (SMILES): C[C@@H](Oc1ccc2c(-c3ccc(F)cc3Cl)cc(=O)oc2c1)C(=O)N1CCC[C@H](C(=O)O)C1 [Compound 14, (3S)-1-[(2R)-2-[4-(2-chloro-4-fluoro-phenyl)-2-oxo-chromen-7-yl]oxypropanoyl]piperidine-3-carboxylic acid]
- IC50 [1]: < 20 nM
- IC50 [2]: 0.1 to 1 µM
- IC50 [3]: 0.1 to 1 µM
- Tolerability ([4]; DLD-1 xenograft, p.o. QD × 28 days): well tolerated
- Therapeutic effect: tumor growth inhibition ([4]; all doses): dose-dependent tumor growth inhibition
- Therapeutic effect: tumor growth inhibition ([4]; lowest dose (50 mg/kg)): minor effect
